Test results taken from BindingDB's records for patent US20230365541 (Haisco Pharmaceuticals, 2023).

Target: Histone-lysine N-methyltransferase EZH2 (Homo sapiens, UniProt Q15910)
Assay: EZH2 Enzyme Activity Assay
Protocol: The compounds were dissolved in DMSO, formulated into 10 mM solutions and serially diluted with DMSO to obtain 100-fold the final concentration. 200 nL of the solutions of the compounds was transferred to a 384-well plate (Perkin Elmer, Cat. No. 6007299) by using Echo550. EZH2 (BPS, Cat. No. 51004) was diluted with 1×assay buffer (50 mM Tris-HCl 9.0, 0.01% Tween-20, 1 mM DTT) to 2-fold the final concentration (EZH2: 3 nM). A mixed solution of H3K27(21-44) and [3H]-SAM (PerkinElmer, Lot. No. 2146246) (H3K27(21-44): 200 nM, [3H]-SAM: 100 nM) was formulated. The EZH2 diluted solution was taken and added to the 384-well plate at 10 μL/well (10 μL of 1×assay buffer was added in the control group). The plate was sealed and then incubated at room temperature for 15 minutes. 10 μL of the mixed solution of H3K27 (21-44) and [3H]-SAM was added to each well. The plate was sealed and then incubated at room temperature for 60 minutes. 50 μM of SAM (Sigma, Cat. No. A7007) was formulated at low temperature and added to the 384-well plate at 10 μL/well. The sample was taken at 25 μL/well, transferred to a flashplate and incubated at room temperature for at least 1 hour. The flashplate was washed 3 times with a plate washing liquid (dH2O+0.1% Tween-20) and read by using Microbeta.

Histone-lysine N-methyltransferase EZH2, sequence (Q15910 whole entry): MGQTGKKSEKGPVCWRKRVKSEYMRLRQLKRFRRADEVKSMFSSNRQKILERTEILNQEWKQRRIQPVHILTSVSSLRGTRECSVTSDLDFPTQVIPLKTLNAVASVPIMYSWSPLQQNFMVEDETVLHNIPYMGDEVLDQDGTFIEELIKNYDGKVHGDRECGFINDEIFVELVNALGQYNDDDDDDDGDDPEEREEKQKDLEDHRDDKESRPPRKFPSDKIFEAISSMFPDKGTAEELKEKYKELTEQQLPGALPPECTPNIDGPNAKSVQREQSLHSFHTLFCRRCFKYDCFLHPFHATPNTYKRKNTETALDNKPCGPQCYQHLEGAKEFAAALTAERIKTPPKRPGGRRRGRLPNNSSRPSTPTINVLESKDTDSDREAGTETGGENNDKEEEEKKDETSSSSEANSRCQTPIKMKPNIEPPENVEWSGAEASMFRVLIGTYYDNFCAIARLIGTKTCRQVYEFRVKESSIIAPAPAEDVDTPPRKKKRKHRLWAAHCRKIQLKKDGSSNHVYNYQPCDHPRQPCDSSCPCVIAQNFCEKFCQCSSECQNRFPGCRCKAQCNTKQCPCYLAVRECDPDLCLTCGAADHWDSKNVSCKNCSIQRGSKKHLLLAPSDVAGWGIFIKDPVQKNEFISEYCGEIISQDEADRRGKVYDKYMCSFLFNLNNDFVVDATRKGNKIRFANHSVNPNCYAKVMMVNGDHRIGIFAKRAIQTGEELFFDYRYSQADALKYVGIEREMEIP

| SMILES | IC50 [nM] |
| --- | --- |
| CNC(=O)N1CCC(C2(C)Oc3c(Cl)cc(C(=O)NCc4c(SC)cc(C)[nH]c4=O)c(C)c3O2)CC1 (configuration not stated) [US20230365541, Compound 13] | 0.43 |
| CSc1cc(C)[nH]c(=O)c1CNC(=O)c1cc(Cl)c2c(c1C)OC(C)(C1CCN(S(C)(=O)=O)CC1)O2 (configuration not stated) [US20230365541, Compound 14] | 0.48 |
